From patent publication US20130045952A1, “ABA Receptor Agonists for Increased Plant Stress Resistance” (Van Andel Research Institute, priority 2011, published 2013)

Molecular target: T1, PYL2 A93F (Arabidopsis thaliana, UniProt O80992, A93F)
T1 construct: PYL2 (residues 14-188), and HAB1 (residues 172-511) were prepared as recombinant proteins in E. coli; made in house; host or cells: E. coli (stated for PYL2 in general)
Assay: PP2C binding and phosphatase assays of mutant PYL2 A93F
Format: biochemical
Source text: The closest distance between the pyridine ring of pyrabactin and the LPA gating residues is 4.8 Å-7.0 Å when the LPA loop assumes the ABA-bound closed conformation, but is 11-13 Å when the LPA gate is in open conformation. In contrast, the distance of the naphthalene double ring of pyrabactin or the cyclohexene ring of ABA to the three side chains of the LPA gate in the PYL1 structure is 3.4-4.6 Å, a range for strong Van der Waals interactions, thus helping to keep the LPA gate in the closed conformation. […] To validate this hypothesis, we changed the alanine in the LPA loop to a larger residue. […] As expected from structural modeling, replacement of the gate residue A93 with the bulky phenylalanine ring also abrogated ABA to promote PYL2 activation.
Mutant proteins were expressed as H6GST-fusion proteins and purified by glutathione sepharose chromatography. Protein-protein interactions were determined by luminescence proximity AlphaScreen assay. Biotinylated PP2C proteins for the luminescence proximity assay were generated by in vivo biotinylation of avitag-PP2C fusion proteins. PP2C phosphatase activity was measured by phosphate release from a SnRK2.6 phosphoprotein.
Site-directed mutagenesis was carried out using the QuickChange method (Stratagene). Mutations and all plasmid constructs were confirmed by sequencing.

T1 sequence (O80992 14-188 A93F): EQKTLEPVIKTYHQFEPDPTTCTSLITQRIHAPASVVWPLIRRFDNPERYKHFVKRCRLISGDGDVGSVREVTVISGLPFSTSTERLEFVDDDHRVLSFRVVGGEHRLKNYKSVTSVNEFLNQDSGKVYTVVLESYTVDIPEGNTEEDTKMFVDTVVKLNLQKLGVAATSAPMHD

Substance: (+)-Abscisic Acid
- Activation of mutant PYL2 A93F receptor: abrogated
